ChEMBL document CHEMBL1123147, “The intercalation of 6-chloro-substituted-9-[[3-(dimethylamino)propyl]amino]acridines with DNA” (J Med Chem, 1985)

Test system: Nucleic Acid
Assay: Binding constant were determined from viscometric titrations with closed circular superhelical DNA

Compound | K app
COc1ccc2nc3cc(Cl)ccc3c(NCCCN(C)C)c2c1 | 210000
CN(C)CCCNc1c2ccccc2nc2cc(Cl)ccc12 | 130000
Cc1ccc2nc3cc(Cl)ccc3c(NCCCN(C)C)c2c1 | 290000
CN(C)CCCNc1c2ccc(Cl)cc2nc2ccc(Cl)cc12 | 160000
CSc1ccc2nc3cc(Cl)ccc3c(NCCCN(C)C)c2c1 | 200000
CN(C)CCCNc1c2ccc(Cl)cc2nc2ccc(F)cc12 | 160000
